Reference: patent publication US20220143224A1, “MRI CONTRAST AGENT FOR USE IN THE DIAGNOSIS OF EARLY CHANGES IN THE ENDOTHELIUM OF BLOOD VESSELS” (UNIWERSYTET JAGIELLONSKI, priority 2019, published 2022)

Legend:
[1] = test system: abdominal aorta (AA) in ApoE/LDLR−/− mice; experiment: MRI-based endothelium-dependent response to acetylcholine in abdominal aorta; assay type: in vivo; conditions: for AA volume change: intraperitoneal Ach, 25 minutes after administration; for change in AA volume: paradoxical vasoconstriction
Description: (§1) The experiments were performed using female ApoE/LDLR−/− mice of different ages: 4-, 6-, 8-, 12- and 28-week-old(19) in comparison to control young (8-week-old) mice (C57BL/6) without endothelial dysfunction. All mice (body weight 20-30 g) were housed under standard pathogen-free conditions (LD: 12/12, humidity: 60%, temperature: 23° C.).
(§2) MRI experiments were carried out using a 9.4 T scanner (BioSpec 94/20 USR, Bruker, Germany). During the experiment, mice were anesthetized using isoflurane (Aerrane, Baxter Sp. z o.o., Poland, 1.5% by volume) in an oxygen and air mixture (1:2). Cardiac activity, respiration rate and body temperature (maintained at 37° C., using circulating warm water) were monitored using Monitoring and Gating System (SA Inc., Stony Brook, N.Y., USA). Mice were imaged in the supine position to test endothelial function and permeability in various blood vessels.
(§3) Endothelium-dependent response to acetylcholine (Ach), expressed as changes in vessel volume, was assessed in the brachiocephalic artery (BCA) visible on the 3D image of the aortic arch (A) and in the abdominal aorta (AA) positioned on the sagittal view of the mouse (B). Assessment of vessel response to flow-mediated dilation (FMD), also expressed as changes in vessel volume, was performed in the femoral artery (FA), visible on the 3D image of the left hind limb (D). Pixels for which T1 had changed more than 50% after CA (Npx50) were marked in red on a representative cross-sectional image of blood vessels arising from the aortic arch (C).
To assess the sensitivity of endothelial dysfunction detection using the new contrast agent, being an invention, impaired endothelial function in ApoE/LDLR−/− mice was also assessed by other MRI-based techniques; detection of endothelium-dependent response to acetylcholine (FIG. 5) and measurement of increase in flow after short-term vessel occlusion (FMD, FIG. 6). As described in our recent publication(22), endothelium-dependent response to acetylcholine (Ach, FIG. 5B) in abdominal aorta (AA) is the most sensitive in vivo method to detect changes in endothelial phenotype. […]
Changes in the end-diastolic volume of brachiocephalic artery (A: BCA-ACH) and abdominal aorta (B: AA-ACH) 25 minutes after administration of acetylcholine in ApoE/LDLR−/− mice (white columns) of different ages: 4-week-old ApoE/LDLR−/− mice, 6-week-old ApoE/LDLR−/− mice, 8-week-old ApoE/LDLR−/− mice, 12-week-old ApoE/LDLR−/− mice, 28-week-old ApoE/LDLR−/− mice as compared to 8-week-old control C57BL/6 mice, (C57_8W, n=4, black columns). Statistics: one-way ANOVA followed by Tukey's post hoc test (normality was assessed using the Shapiro-Wilk test); *p<0.05, **p<0.01, ***p<0.001.

[2] = test system: brachiocephalic artery (BCA) in ApoE/LDLR−/− mice; experiment: MRI-based endothelium-dependent response to acetylcholine in brachiocephalic artery; assay type: in vivo
Description: as §1, §2, §3
To assess the sensitivity of endothelial dysfunction detection using the new contrast agent, being an invention, impaired endothelial function in ApoE/LDLR−/− mice was also assessed by other MRI-based techniques; detection of endothelium-dependent response to acetylcholine (FIG. 5) and measurement of increase in flow after short-term vessel occlusion (FMD, FIG. 6). […]

CC(=O)OCC[N+](C)(C)C [Ach, acetylcholine]
AA volume change ([1]; 4-week-old ApoE/LDLR−/− mice): about 23% | change in AA volume ([1]; 12-week-old ApoE/LDLR−/− mice): about −8% | change in AA volume ([1]; 28-week-old ApoE/LDLR−/− mice): ~−23% | AA volume change ([1]; control mice (8-week-old C57BL/6)): about 34% | changes in BCA volume ([2]; 4 to 8-week-old ApoE/LDLR−/− mice): approximately 10% | volume change in the BCA ([2]; 8-week-old control mice (C57BL/6)): 11.26% | BCA volume changes ([2]; 12-week-old ApoE/LDLR−/− mice): about 2%
